Experimental findings from patent US11390616B2 (BRISTOL-MYERS SQUIBB COMPANY, priority 2015, dated 2022) are described below.

Read-outs that look alike come from different tables or passages of the source.

The assay concerns the target T1, human APJ receptor (Homo sapiens, UniProt P35414).
T1 construct: expressed in transfected cells; host or cells: HEK293
T1 sequence (P35414 1-380): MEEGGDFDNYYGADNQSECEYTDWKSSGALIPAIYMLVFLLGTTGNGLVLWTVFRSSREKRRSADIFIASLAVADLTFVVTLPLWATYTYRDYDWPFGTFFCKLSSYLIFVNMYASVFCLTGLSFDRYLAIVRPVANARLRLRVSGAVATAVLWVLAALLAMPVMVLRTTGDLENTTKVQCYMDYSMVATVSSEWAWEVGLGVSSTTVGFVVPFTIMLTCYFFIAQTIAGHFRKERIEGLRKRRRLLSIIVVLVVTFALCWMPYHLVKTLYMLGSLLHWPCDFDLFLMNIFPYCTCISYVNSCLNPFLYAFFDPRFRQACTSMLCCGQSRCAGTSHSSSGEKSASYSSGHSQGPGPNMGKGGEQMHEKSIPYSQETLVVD
The assay is described as follows: Intracellular cAMP accumulation assay (APJ hcAMP, HTRF). It is filed as cell-based. The settings on record: HEK293 cells stably expressing human APJ receptor, inhibition of forskolin-mediated cAMP production. The protocol: Intracellular cAMP Accumulation Assay
HEK293 cells stably expressing human APJ receptor were used to assess the activity of compounds. Cultured cells were detached and resuspended in the cAMP Homogeneous Time-Resolved Fluorescence (HTRF) assay buffer (Cisbio cat; #62AM4PEJ). The assay was performed in 384-well assay plates (Perkin-Elmer; cat #6008289) according to assay protocol provided by the manufacturer. Serial dilutions of a compound together with assay buffer containing […] IBMX and 2 μM forskolin were added to each well containing 5,000 cells and incubated for 30 minutes at room temperature. Subsequently, cAMP D2 reagent was added in the lysis buffer followed by the EuK antibody (Cisbio; cat #62AM4PEJ) and incubated for 60 min. The fluorescence emission ratio was measured using fluorometer. The intracellular cAMP concentrations (compound-stimulated inhibition of forskolin-mediated cAMP production) were calculated by extrapolation from a standard curve using known cAMP concentrations. The EC50 values were obtained by fitting the data to a sigmoidal concentration-response curve with variable slope. The maximal achievable inhibition of forskolin-induced cAMP levels (Ymax) for each compound was expressed as relative percentage of inhibition attained using pyroglutamated apelin-13 ((Pyr1)apelin-13) peptide, which was set to 100%.
The examples disclosed below were tested in the APJ in vitro assays described above and were found having human APJ cyclic AMP (hcAMP) activity. The EC50 value of each compound is presented at the end of the example description.
The biological activity of the exemplified compounds of this invention determined by the assay described above is shown at the end of each example.
A general note: Cyclic AMP is a second messenger, typically raised through Gs and lowered through Gi signalling.

Setting [1] is: read-out: APJ cAMP Potency range.

In the case of `COc1cccc(OC)c1-n1c(CCC(C)C)nc(O)c(Cc2ccc(-n3cc(Cl)ccc3=O)cc2)c1=O` [Example 53, 5-{[4-(5-chloro-2-oxo-1,2-dihydropyridin-1-yl)phenyl]methyl}-3-(2,6-dimethoxyphenyl)-6-hydroxy-2-(3-methylbutyl)-3,4-dihydropyrimidin-4-one], under setting [1], the EC50 is 0.01 to 10 nM.

On to `COc1cccc(OC)c1-n1c(CCC(C)C)nc(O)c(Cc2ccc(-n3cc(C)ccc3=O)cc2)c1=O` [Example 54, 3-(2,6-dimethoxyphenyl)-6-hydroxy-5-{[4-(5-methyl-2-oxo-1,2-dihydropyridin-1-yl)phenyl]methyl}-2-(3-methylbutyl)-3,4-dihydropyrimidin-4-one], for which, under setting [1], the EC50 was in the range of 0.01 to 10 nM. Still for that read-out and setting: then `COc1cccc(OC)c1-n1c(CCC2CC2)nc(O)c(Cc2ccc(-n3cc(C)ccc3=O)cc2)c1=O` [Example 55, 2-(2-cyclopropylethyl)-3-(2,6-dimethoxyphenyl)-6-hydroxy-5-{[4-(5-methyl-2-oxo-1,2-dihydropyridin-1-yl)phenyl]methyl}-3,4-dihydropyrimidin-4-one], with 0.01 to 10 nM.

As for `COc1cccc(OC)c1-n1c(CCC2CC2)nc(O)c(Cc2ccc(-n3cc(F)ccc3=O)cc2)c1=O` [Example 56, 2-(2-cyclopropylethyl)-3-(2,6-dimethoxyphenyl)-5-{[4-(5-fluoro-2-oxo-1,2-dihydropyridin-1-yl)phenyl]methyl}-6-hydroxy-3,4-dihydropyrimidin-4-one], under setting [1], the EC50 is 0.01 to 10 nM.

As for `COc1cccc(OC)c1-n1c(CCC2CC2)nc(O)c(Cc2ccc(-n3cc(Cl)ccc3=O)cc2)c1=O` [Example 57, 5-{[4-(5-chloro-2-oxo-1,2-dihydropyridin-1-yl)phenyl]methyl}-2-(2-cyclopropylethyl)-3-(2,6-dimethoxyphenyl)-6-hydroxy-3,4-dihydropyrimidin-4-one], the EC50 under setting [1] lay in the range of 0.01 to 10 nM. On the same count and under the same terms, then `COc1cccc(OC)c1-n1c(COC(C)C)nc(O)c(Cc2ccc(-n3cc(C)ccc3=O)cc2)c1=O` [Example 58, 3-(2,6-dimethoxyphenyl)-6-hydroxy-5-{[4-(5-methyl-2-oxo-1,2-dihydropyridin-1-yl)phenyl]methyl}-2-[(propan-2-yloxy)methyl]-3,4-dihydropyrimidin-4-one], with 0.01 to 10 nM; and `COc1cccc(OC)c1-n1c(COC(C)C)nc(O)c(Cc2ccc(-n3cc(F)ccc3=O)cc2)c1=O` [Example 59, 3-(2,6-dimethoxyphenyl)-5-{[4-(5-fluoro-2-oxo-1,2-dihydropyridin-1-yl)phenyl]methyl}-6-hydroxy-2-[(propan-2-yloxy)methyl]-3,4-dihydropyrimidin-4-one], with 0.01 to 10 nM; and `COc1cccc(OC)c1-n1c(COC(C)C)nc(O)c(Cc2ccc(-n3cc(Cl)ccc3=O)cc2)c1=O` [Example 60, 5-{[4-(5-chloro-2-oxo-1,2-dihydropyridin-1-yl)phenyl]methyl}-3-(2,6-dimethoxyphenyl)-6-hydroxy-2-[(propan-2-yloxy)methyl]-3,4-dihydropyrimidin-4-one], with 0.01 to 10 nM.

Turning to `CCc1cccc(CC)c1-n1c(-c2ccn(C3CC3)n2)nc(=O)c(Cc2ccc(-c3ccnc(F)c3C)c(F)c2)c1O` [Example 61, 2-(1-cyclopropyl-1H-pyrazol-3-yl)-1-(2,6-diethylphenyl)-5-(3-fluoro-4-(2-fluoro-3-methylpyridin-4-yl)benzyl)-6-hydroxypyrimidin-4(1H)-one], for the setting “read-out: Human APJ cAMP EC50 potency range”, the EC50 is 0.01 to 10 nM. Take `CCn1ccc(-c2nc(=O)c(Cc3ccc(-c4ccncc4C)cc3)c(O)n2-c2c(OC)cccc2OC)n1` [Example 62, 1-(2,6-dimethoxyphenyl)-2-(1-ethyl-1H-pyrazol-3-yl)-6-hydroxy-5-{[4-(3-methylpyridin-4-yl)phenyl]methyl}-1,4-dihydropyrimidin-4-one]: under setting [1], the EC50 lay in the range of 0.01 to 10 nM. The same measure, in the same setting: then `CCn1ccc(-c2nc(=O)c(Cc3ccc(-c4ccnc(F)c4C)cc3)c(O)n2-c2c(OC)cccc2OC)n1` [Example 63, 1-(2,6-dimethoxyphenyl)-2-(1-ethyl-1H-pyrazol-3-yl)-5-{[4-(2-fluoro-3-methylpyridin-4-yl)phenyl]methyl}-6-hydroxy-1,4-dihydropyrimidin-4-one], with 0.01 to 10 nM.

Consider `CCCCc1nc(=O)c(Cc2ccc(-c3ccc(F)nc3C)cc2)c(O)n1-c1c(CC)cccc1CC` [Example 64, 2-butyl-1-(2,6-diethylphenyl)-5-{[4-(6-fluoro-2-methylpyridin-3-yl)phenyl]methyl}-6-hydroxy-1,4-dihydropyrimidin-4-one], for which, under setting [1], the EC50 fell in the range of 0.01 to 10 nM. The same measure, in the same setting: in the case of `CCCCc1nc(=O)c(Cc2ccc(-c3ccc(F)nc3)cc2)c(O)n1-c1c(CC)cccc1CC` [Example 65, 2-butyl-1-(2,6-diethylphenyl)-5-{[4-(6-fluoropyridin-3-yl)phenyl]methyl}-6-hydroxy-1,4-dihydropyrimidin-4-one] it was 0.01 to 10 nM; in that of `CCCCc1nc(=O)c(Cc2ccc(-c3ccnc(F)c3C)cc2)c(O)n1-c1c(CC)cccc1CC` [Example 66, 2-butyl-1-(2,6-diethylphenyl)-5-{[4-(2-fluoro-3-methylpyridin-4-yl)phenyl]methyl}-6-hydroxy-1,4-dihydropyrimidin-4-one], 0.01 to 10 nM. On the same count and under the same terms, in the case of `CCCCc1nc(=O)c(Cc2ccc(C3CC3)cc2)c(O)n1-c1c(CC)cccc1CC` [Example 67, 2-butyl-5-[(4-cyclopropylphenyl)methyl]-1-(2,6-diethylphenyl)-6-hydroxy-1,4-dihydropyrimidin-4-one] it was 0.01 to 10 nM. On the same count and under the same terms, in the case of `CCCCc1nc(=O)c(Cc2ccc(-c3ccccc3)cc2)c(O)n1-c1c(CC)cccc1CC` [Example 68, 5-({[1,1′-biphenyl]-4-yl}methyl)-2-butyl-1-(2,6-diethylphenyl)-6-hydroxy-1,4-dihydropyrimidin-4-one] it was 10 to 100 nM; in that of `CCc1cccc(CC)c1-n1c(-c2ccn(C)n2)nc(=O)c(Cc2ccc(-c3ccc(F)nc3C)c(F)c2)c1O` [Example 69, 1-(2,6-diethylphenyl)-5-{[3-fluoro-4-(6-fluoro-2-methylpyridin-3-yl)phenyl]methyl}-6-hydroxy-2-(1-methyl-1H-pyrazol-3-yl)-1,4-dihydropyrimidin-4-one], 0.01 to 10 nM; in that of `CCc1cccc(CC)c1-n1c(-c2ccn(C)n2)nc(=O)c(Cc2ccc(-c3ccncc3C)c(F)c2)c1O` [Example 70, 1-(2,6-diethylphenyl)-5-{[3-fluoro-4-(3-methylpyridin-4-yl)phenyl]methyl}-6-hydroxy-2-(1-methyl-1H-pyrazol-3-yl)-1,4-dihydropyrimidin-4-one], 0.01 to 10 nM. Consider `CCc1cccc(CC)c1-n1c(-c2ccn(C)n2)nc(=O)c(Cc2ccc(-c3ccnc(F)c3C)c(F)c2)c1O` [Example 71, 1-(2,6-diethylphenyl)-5-{[3-fluoro-4-(2-fluoro-3-methylpyridin-4-yl)phenyl]methyl}-6-hydroxy-2-(1-methyl-1H-pyrazol-3-yl)-1,4-dihydropyrimidin-4-one], for which, under setting [1], the EC50 lay within 0.01 to 10 nM.

Take `CCc1cccc(CC)c1-n1c(-c2csc(C)n2)nc(=O)c(Cc2ccc(-c3ccc(F)nc3C)c(F)c2)c1O` [Example 72, 1-(2,6-diethylphenyl)-5-{[3-fluoro-4-(6-fluoro-2-methylpyridin-3-yl)phenyl]methyl}-6-hydroxy-2-(2-methyl-1,3-thiazol-4-yl)-1,4-dihydropyrimidin-4-one]: under setting [1], the EC50 lay within 0.01 to 10 nM.

For the compound `CCc1cccc(CC)c1-n1c(-c2nc(C)cs2)nc(=O)c(Cc2ccc(-c3ccnc(F)c3C)c(F)c2)c1O` [Example 73, 1-(2,6-diethylphenyl)-5-{[3-fluoro-4-(2-fluoro-3-methylpyridin-4-yl)phenyl]methyl}-6-hydroxy-2-(4-methyl-1,3-thiazol-2-yl)-1,4-dihydropyrimidin-4-one], the EC50 under setting [1] is 0.01 to 10 nM.

Take `CCc1cccc(CC)c1-n1c(-c2csc(C)n2)nc(=O)c(Cc2ccc(-c3ccncc3C)c(F)c2)c1O` [Example 74, 1-(2,6-diethylphenyl)-5-{[3-fluoro-4-(3-methylpyridin-4-yl)phenyl]methyl}-6-hydroxy-2-(2-methyl-1,3-thiazol-4-yl)-1,4-dihydropyrimidin-4-one]: under setting [1], the EC50 lay within 0.01 to 10 nM. Same read-out and setting: in the case of `CCc1cccc(CC)c1-n1c(-c2nc(C)cs2)nc(=O)c(Cc2ccc(-c3ccncc3C)c(F)c2)c1O` [Example 75, 1-(2,6-diethylphenyl)-5-{[3-fluoro-4-(3-methylpyridin-4-yl)phenyl]methyl}-6-hydroxy-2-(4-methyl-1,3-thiazol-2-yl)-1,4-dihydropyrimidin-4-one] it was 0.01 to 10 nM.
